Source: patent publication US5445941A, “Method for screening anti-osteoporosis agents” (Eli Lilly and Company, priority 1993, dated 1995)
Entries after “also recorded” stand apart in the source; their conditions may differ.

What was measured:
[1] = system: TGFβ-3 promoter; test: CAT reporter expression, TGFβ-3 promoter (pB-499), MG63 cells cotransfected with pRSVER
Protocol: (§3) Co-transfection experiments were performed in MG63 (human osteosarcoma) cells, using the ProFection Mammalian Transfection System (Promega). […] The cells were then refed with fresh 3:1 media containing 10% csFBS. Compounds to be evaluated for their ability to modulate reporter gene expression were added at the appropriate times and assayed as described below.
(§4) Cultures of MG63 cells were transiently co-transfected with pRSVER plasmid and either phTG12, pTGF-1, or pB2-499 using the ProFection system (Promega). For each transfected cell culture, DNA-containing calcium phosphate precipitates were added dropwise to each culture dish and mixed thoroughly in the media. The pH of the media was carefully maintained between pH 7.2 and pH 7.4. Transfected cell cultures were then incubated overnight in a 5% CO2 atmosphere at 37° C. For all cultures, the precipitate was removed after overnight incubation by aspirating the media from the culture dishes, followed by rinsing each dish twice with D-PBS. For each cotransfected cell line, the buffer was replaced with 10 ml fresh medium containing 10% csFBS and one of the following compositions:
(§5) a. 10 μl ethanol (hormone vehicle)=control;
(§6) b. 10 μl 17β-estradiol (Sigma) ("estradiol") at a concentration of 10^-4 M in ethanol;
(§7) d. 10 μl Tamoxifen (Sigma) at a concentration of 10^-4 M in ethanol.
(§8) After 24 h incubation with these hormonal preparations (or the vehicle control), cells were washed twice with D-PBS. The cells were then scraped from the culture dishes using a rubber policeman and 1 ml of D-PBS. Cells were collected by centrifugation at 8,000 rpm for 2 minutes in a tabletop centrifuge (MicroMax Model, IEC, Newark, N.Y.). The supernatant was removed and the cell pellets were resuspended in 150 μL of a 0.25M Tris-HCl solution (pH 7.8). Cells were lysed by three cycles of freezing in a dry ice/ethanol bath and thawing in a water bath at 37° C. water bath (for 3 minutes each cycle). Lysed cell preparations were centrifuged at 15,000 rpm for 5 minutes at 4° C. to remove cell debris. Supernatants containing the soluble cell lysate were transferred to a new set of tubes for assaying chloramphenicol acetyltransferase (CAT) activity.
(§9) Before performing CAT assays on such cell lysates, the protein content of each lysate was first determined using a commercially-available assay (BioRad Laboratories, Richmond, Calif.). […]

[2] = animal models and humans; cited from earlier work
[3] = system: TGFβ-3 promoter; test: Dose response of TGFβ-3 promoter (pB-301) CAT induction in MG63 cells with pRSVER; settings: for CAT activity: vehicle 0.85
Protocol: For each group of twelve cultures, the particular estrogen or antiestrogen compound was tested in replicate cultures at […], varying in tenfold increments from 10^-9 M to 10^-5 M, as well as one set of replicate cultures treated with vehicle only (for a total of twelve cultures per experimental treatment). Hormones were dissolved in ethanol and applied to the cultures in media as described above. The four estrogens and antiestrogens tested were:
a. 17β-estradiol (Sigma Chemical Corp., St. Louis, Mo.);

[4] = system: TGFβ-3 promoter; test: Reporter induction, pB-301 (TGFβ-3 promoter) and pRSVER in MG63 cells; assay type: cell-based, human; settings: control 0.7
Protocol: These assays were performed essentially as in Example V.
Transfected cells were treated with varying amounts and combinations of hormones and then rinsed twice with D-PBS. Cells were then lysed upon incubation with 250 μL of eukaryotic cell lysis reagent (as described in Example VI) at 4° C. for 20 min and transferred to microcentrifuge tubes by scraping with a rubber policeman. Cell lysates were centrifuged at 14,000 rpm for 1 minute to remove cell debris. Cell extracts (supernatant) were then assayed for protein content and luciferase activities.
Luciferase assays were performed as follows. 50 μL of each cell extract was added to 100 μL of reagent A buffer (containing 4.0 mM ATP/15 mM MgSO4 / 30 mM tricine buffer (pH 7.8)/ 10 mM DTT) in individual wells of a microtiter plate. 100 μL of 1 mM D(-)-luciferin (in 0.1M KPO4 (pH 7.8); Boehringer Mannheim) were added to each well and the amount of light produced measured by using a ML3000 microtiter plate luminometer (under conditions of integrate flash mode, high gain, integrate window=10 seconds, at a temperature of 22° C.). Luciferase activities were calculated as total light output relative to protein content in each cell lysate sample.

[5] = system: TGFβ-3 promoter; test: ER dependent induction of TGFβ-3 promoter (pB2-499) in MG63 cells; assay type: cell-based, human
From the text: It was known in the prior art that the ability of both estrogens and antiestrogens to influence TGFβ production is dependent on the expression of estrogen receptor (ER), but the level at which this influence is exerted was not known (i.e. transcriptional, translational or post-translational). A series of experiments were therefore performed to investigate the putative dependence on ER expression of induction of reporter gene expression using the TGFβ promoter-containing constructs of the invention.
Cultures of MG63 were prepared for co-transfection as in Example IV. One such culture was co-transfected with pB2-499 and pRSVER and another was co-transfected with pB2499 and pRSV vector plasmid (as a control).
(b) 17β-estradiol (10^-7 M)

[6] = system: LDL receptor promoter; test: LDLR-Luc production in the absence of ER (pLDLRLUC10 and pRSV vector, HepG2 cells); assay type: cell-based, human; settings: for LDLR-Luc production: no ER, 0 M 1597
From the text: (§1) A 1546 base pair sequence of the human LDL receptor promoter was amplified using the polymerase chain reaction. A reaction mixture containing 20 picomoles each of the synthetic oligonucleotides:
(§2) The 1546 base pair fragment described above was isolated and cloned into the vector pSv2 containing firefly luciferase reporter gene that had been restriction enzyme digested to completion with NdeI and partially with HindIII. The resulting vector, pLDLRLUC10 contains the human LDL receptor promoter directing expression of the firefly luciferase gene, an ampicillin resistance marker and an origin of replication.
ATCC strain HepG2 cells were co-transfected with pLDLRLUC10 and pRSV vector plasmid as described in Example IV.

[7] = system: TGFβ-2 promoter; test: CAT reporter expression, TGFβ-2 promoter (pTGF-1), MG63 cells cotransfected with pRSVER; settings: TGFβ-2 promoter
Protocol: as §3, §4, §5, §6, §7, §8, §9

[8] = system: TGFβ-1 mRNA; settings: HEC-50, 1% ctFBS; cited from earlier work
[9] = system: LDL receptor promoter; test: LDLR-Luc production in presence of ER (pLDLRLUC10 and pRSVER, HepG2 cells); assay type: cell-based, human; settings: listed as estrogen
From the text: as §1, §2
ATCC strain HepG2 cells were co-transfected with pLDLRLUC10 and pRSVER as described in Example IV.

[10] = system: TGFβ-3 promoter; test: TGFβ-3 activation in CHO cells (pB-301 and pRSVER, CAT); assay type: cell-based, hamster; settings: 24 h, 0 M 10.6
[11] = system: TGFβ-3 promoter; test: TGFβ-3 activation in MCF-7 cells (pTGFβ-301LUC, luciferase); assay type: cell-based, human; settings: 24 h, 0 M 7.8
Protocol: Cultures of MCF-7 cells were transiently transfected with pTGFβ-301LUCas described in Example IV.
After 24 hours of treatment with the hormonal preparation (or the vehicle control), the cells were washed, harvested, lysed and assayed for LUC activity according to the method of Example VI.

In the case of `C[C@]12CC[C@@H]3c4ccc(O)cc4CC[C@H]3[C@@H]1CC[C@@H]2O` [estradiol, 17β-estradiol], the fold induction at 0.1 µM ([1]; Homo sapiens, MG-63, 24 h, read-out: Fold Ind.) is listed as 2.8, the “Act. (relative CAT activity)” value ([1]; TGFβ-3 promoter, 10 μl of 10^-4 M in 10 ml medium, 24 h, control 0.7) is listed as 2.1 and the “serum lipid lowering effect (in words)” value [2] is listed as “serum lipid lowering effect”. It also gave a CAT activity ([3]; 10^-5 M, 24 h) of 3.4, a CAT activity ([3]; 10^-6 M, 24 h) of 4.3 and a CAT activity ([3]; 10^-7 M, 24 h) of 1.6. For the same compound, the CAT activity ([3]; 10^-8 M, 24 h) was 1.1, the CAT activity ([3]; 10^-9 M, 24 h) was 0.96 and the “ED50 (in words)” value ([3]; MG63 cells) was “two orders of magnitude higher than that of raloxifene”. For the same compound, the “TGFβ-3 promoter activation (in words)” value ([3]; MG63 cells) was “least potent inducer”, the “induction of reporter gene transcription/expression” value ([3]; mg63 cells, 24 h) was 4 fold and the “reporter gene expression, pB-301” value ([4]; 10^-5 M) was 8.0. The “reporter gene expression, pB-301” value ([4]; 10^-6 M) was 5.2, the “reporter gene expression, pB-301” value ([4]; 10^-7 M) was 5.5 and the “reporter gene expression, pB-301” value ([4]; 10^-8 M) was 3.2. For the same compound, the “reporter gene expression, pB-301” value ([4]; 10^-9 M) was 1.1, the “effect of lack of ER expression (in words)” value ([5]; lack of ER expression) was “virtually abolishes expression of TGFβ-3” and the “reporter gene expression, Control Plasmid” value ([5]; no ER (pRSV vector), estradiol 10^-7 M, raloxifene 2×10^-6 M, vehicle 0.9) was 1.0. The “reporter gene expression, ER Expression Plasmid” value ([5]; pRSVER, estradiol 10^-7 M, raloxifene 2×10^-6 M, vehicle 1.3) was 4.6, the “induction of LDLR promoter without ER (in words)” value ([6]; at or below 10^-6 M, or high concentrations as worded, FIG. 16) was “No induction” and the LDLR-Luc production ([6]; 10^-5 M) was 2445. For the same compound, the LDLR-Luc production ([6]; 10^-6 M) was 1578, the LDLR-Luc production ([6]; 10^-7 M) was 1574 and the LDLR-Luc production ([6]; 10^-8 M) was 1792. For the same compound, the LDLR-Luc production ([6]; 10^-9 M) was 1645, the “Act. (relative CAT activity)” value ([7]; 10 μl of 10^-4 M in 10 ml medium, 24 h, control 0.8) was 1.29 and the “Fold Ind.” value ([7]; comparison with control, 1440 min, 0.1 µM) was 1.6 fold. The “TGFβ-1 mRNA concentration (in words)” value [8] was “Decreased concentrations of TGFβ-1 mRNA”, the “induction of LDL receptor promoter/expression (in words)” value [9] was “mediated by ER; also recorded: have the ability to induce LDL receptor expression” and the CAT activity ([10]; 10^-5 M) was 33.3. For the same compound, the CAT activity ([10]; 10^-6 M) was 32.9, the CAT activity ([10]; 10^-7 M) was 29.4 and the CAT activity ([10]; 10^-8 M) was 22.6. The CAT activity ([10]; 10^-9 M) was 11.9, the Luciferase activity ([11]; 10^-5 M) was 122 thousands of units and the Luciferase activity ([11]; 10^-6 M) was 101.3 thousands of units. For the same compound, the Luciferase activity ([11]; 10^-7 M) was 107.3 thousands of units, the Luciferase activity ([11]; 10^-8 M) was 9.1 thousands of units and the Luciferase activity ([11]; 10^-9 M) was 19.2 thousands of units.
